Reference: patent US20050106173A1, “METHODS AND COMPOSITIONS FOR TREATING MALE SEXUAL DYSFUNCTION” (priority 2003, published 2005)

Experiments:
Type in all cases: in vivo
[1] = tested on: castrated male Wistar rats; test: Sexual activity of castrated male rats caged with female rats (mounting, sniffing and licking frequency); settings: once daily for 30 days (yeast 1.2 ml/kg intragastric; testosterone propionate 2 mg/kg i.m.), day 29, two female rats in cage
Protocol: To test the ability of the EMF-treated AS2.502 cells to improve male sexual function, hormone levels, and sexual organ development, 50 healthy adult male Wistar rats (about 100-120 g body weight, 6-8 weeks old) were selected. Ten rats were randomly selected to be the normal control group, CK1 (uncastrated rats). Under anesthesia with pentobarbital (5%, at 45 mg/kg body weight), both testes (including the epididymis) of each of the remaining 40 rats were removed under sterile conditions. Immediately after castration, Penicillin G was injected at 20,000 U/kg body weight once daily for five consecutive days. The castrated rats were then randomly divided into four equal groups, designated as AY (for treatment with the activated yeast composition), NY (for treatment with the control yeast composition), CK2 (for treatment with testosterone propionate), and CK3 (for treatment with saline). Each rat was kept separately. The activated yeast composition was administered to the AY rats at 1.2 ml/kg body weight once daily for 30 days. […]
On the twenty-ninth day of the experiment, two female rats (100-120 g, 6-8 weeks old) were put into the same cage as each male rat and kept there for 30 minutes. The frequency of the male rat's sniffing and licking of the female rats, and the frequency of the male rat's mounting of the female rats were recorded in Table 2.

[2] = tested on: castrated male Wistar rats; test: Wet weight of glandulae preputiales, seminal vesicle and prostate of castrated rats; settings: once daily for 30 days, sacrificed day 31
Protocol: (§1) To test the ability of the EMF-treated AS2.502 cells to improve male sexual function, hormone levels, and sexual organ development, 50 healthy adult male Wistar rats (about 100-120 g body weight, 6-8 weeks old) were selected. Ten rats were randomly selected to be the normal control group, CK1 (uncastrated rats). Under anesthesia with pentobarbital (5%, at 45 mg/kg body weight), both testes (including the epididymis) of each of the remaining 40 rats were removed under sterile conditions. Immediately after castration, Penicillin G was injected at 20,000 U/kg body weight once daily for five consecutive days. The castrated rats were then randomly divided into four equal groups, designated as AY (for treatment with the activated yeast composition), NY (for treatment with the control yeast composition), CK2 (for treatment with testosterone propionate), and CK3 (for treatment with saline). Each rat was kept separately. The activated yeast composition was administered to the AY rats at 1.2 ml/kg body weight once daily for 30 days. The control yeast composition was administered to the NY rats and saline was administered to the CK3 rats at the same dosage. […]
Each male rat was sacrificed on the thirty-first day. […] The wet weight of the prostate and seminal vesicle was recorded in Table 2. […] The wet weight of the glandulae preputiales was also recorded in Table 2.

castrated Wistar rats [3] = test: Erectile function by electrical stimulation (erection lag) in castrated rats; settings: once daily for 30 days, day 31, stimulator 55 Hz and 4.5 mA
Protocol: as §1, with “150-180” for “100-120”, “8-10” for “6-8”
On the thirty-first day of the experiment, an electrical stimulator was used to measure the erectile function of the rats. […] The time needed for the penis to achieve erection (“the erection lag”) was recorded in Table 3.

castrated Wistar rats [4] = test: Blood testosterone concentration by radio-immunoassay (RIA) in castrated rats; settings: once daily for 30 days, blood after the erection test on day 31, RIA
Protocol: as §1, with “150-180” for “100-120”, “8-10” for “6-8”
Each rat was sacrificed after the erection test. Blood samples were collected from each rat, and the blood concentration of testosterone was determined by the standard radio-immunoassay (RIA) method.

For `CCC(=O)O[C@H]1CC[C@H]2[C@@H]3CCC4=CC(=O)CC[C@]4(C)[C@H]3CC[C@]12C` [testosterone propionate], the “Mounting Frequency Within a 30 min Period” value [1] was 12.3 ± 4.6, the “Sniffing & Licking Frequency Within a 30 min Period” value [1] was 22.7 ± 4.6 and the “Glandulae Preputiales (wet weight)” value [2] was 89.5 ± 14.6 mg. The “Seminal Vesicle and Prostate (wet weight)” value [2] was 198.7 ± 42.6 mg, the “Erection Lag” value (castrated Wistar rats [3]) was 19.3 ± 14.6 s and the “Testosterone Levels” value (castrated Wistar rats [4]) was 124.17 ± 67.65 ng/dL.
